Reference: patent publication US20260199350A1, “FLAVONES, QUINOLINONES, QUINAZOLINONES, AND AURONES, AND USES IN CK2-MEDIATED DISEASES” (Salk Institute for Biological Studies, priority 2022, published 2026)
≈ marks a conversion by molar mass, not a printed value. Where two headings read alike, the source gives them in different places.

How the values were obtained:
CK2A1 = molecular target: T1, CK2A1 (Homo sapiens, UniProt P68400); assay: Radiometric kinase assay (Eurofins), CK2A1; assay type: biochemical
T1 construct: purchased Eurofins
Description: FIGS. 4A-4F characterize flavones for in vitro and in-cell CK2 inhibition. […] Representative of two independent experiments. […] Nonlinear fit was used to calculate IC50. […] Nonlinear fit was used to calculate IC50. […] Nonlinear fit was used to calculate IC50. […] Normalized to DMSO, data are representative of three independent experiments.
(§1) • ^1Radiometric kinase assay from Eurofins. Performed in astrocytes with a Promega Lumit IL-6 kit.

Aqueous solubility = assay type: physicochemical
CK2A2 = molecular target: T2, CK2A2 (Homo sapiens, UniProt P19784); assay: Radiometric kinase assay (Eurofins), CK2A2; assay type: biochemical
T2 construct: purchased Eurofins
Description: as §1

IL-6 secretion = IL-6 secretion assay in astrocytes (Promega Lumit IL-6 kit); assay type: cell-based, human; conditions: Homo sapiens, Astrocyte, read-out: IL6-Inhib.
Method: IL-6 secretion assay. HCAs were plated at 20,000 cells per well in white clear bottom 96-well plates. Two to three days later, media was removed and replaced with media containing 10 ng/mL IL1B and compound dilution series. Five hours later, plates were processed using the Lumit IL-6 Assay Kit (Promega W6030) according to the manufacturer's instructions.
• ^1Radiometric kinase assay from Eurofins. Performed in astrocytes with a Promega Lumit IL-6 kit. A series of halogenated flavones was generated and assayed (Table 3).

[1] = Table 8, quinazolinones, read-out: CK2A1 RAD IC50
[2] = aqueous medium (not further specified), Table 8, read-out: Aqueous Solubility
[3] = Table 8, quinazolinones, read-out: CK2A2 RAD IC50
[4] = Table 11, aurones, read-out: CK2A1 RAD IC50
[5] = Table 11, read-out: Aqueous Solubility
[6] = Table 11, aurones, read-out: CK2A2 RAD IC50
[7] = Table 3, halogenated flavones, read-out: CK2A1 RAD IC50
[8] = aqueous (not further specified), Table 3, read-out: Aqueous Solubility
[9] = Table 3, halogenated flavones, read-out: CK2A2 RAD IC50
[10] = Table 10, aurones, read-out: CK2A1 IC50
[11] = Table 10, aurones, read-out: CK2A2 IC50

T1 sequence (P68400 whole entry): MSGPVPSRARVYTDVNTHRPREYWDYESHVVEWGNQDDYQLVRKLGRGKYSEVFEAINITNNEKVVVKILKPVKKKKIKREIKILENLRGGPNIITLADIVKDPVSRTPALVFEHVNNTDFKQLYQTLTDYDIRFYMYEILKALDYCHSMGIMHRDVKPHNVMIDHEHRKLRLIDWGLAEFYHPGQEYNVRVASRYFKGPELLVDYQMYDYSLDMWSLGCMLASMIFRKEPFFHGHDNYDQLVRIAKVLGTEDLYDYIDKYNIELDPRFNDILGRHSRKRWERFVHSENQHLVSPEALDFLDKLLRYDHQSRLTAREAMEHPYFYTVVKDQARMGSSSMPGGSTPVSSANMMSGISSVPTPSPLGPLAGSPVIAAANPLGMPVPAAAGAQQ
T2 sequence (P19784 whole entry): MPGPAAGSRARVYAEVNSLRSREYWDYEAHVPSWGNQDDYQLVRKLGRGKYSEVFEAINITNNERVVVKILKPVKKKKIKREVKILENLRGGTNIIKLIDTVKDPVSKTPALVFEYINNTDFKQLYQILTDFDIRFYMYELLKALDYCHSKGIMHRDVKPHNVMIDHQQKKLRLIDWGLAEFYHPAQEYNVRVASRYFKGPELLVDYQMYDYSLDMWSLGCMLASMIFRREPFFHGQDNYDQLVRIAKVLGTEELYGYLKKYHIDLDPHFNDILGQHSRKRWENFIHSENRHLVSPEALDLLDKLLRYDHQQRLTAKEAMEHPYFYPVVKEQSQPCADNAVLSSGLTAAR

SMILES: O=c1[nH]c(-c2cc(F)c(O)c(F)c2)nc2c(Cl)cc(Cl)cc12 [JKT.808A]
- IC50 (CK2A1; [1]): 2980 nM
- solubility (Aqueous solubility; [2]): 189 µM (≈ 64.7 µg/mL)
- IC50 (CK2A2; [3]): 1620 nM
- IC50 (IL-6 secretion; Table 8): > 10 µM

SMILES: COc1cc(/C=C2\Oc3c(ccc(OC)c3Br)C2=O)ccc1O [JKT.820A]
- IC50 (CK2A1; [4]): 7 nM
- solubility (Aqueous solubility; [5]): < 0.01 µM
- IC50 (CK2A2; [6]): 6 nM
- IC50 (IL-6 secretion; Table 11): > 10 µM

SMILES: O=c1[nH]c(-c2ccc(O)c(Cl)c2)nc2c(Br)cccc12 [JKT.828A]
- IC50 (CK2A1; [1]): 652 nM
- solubility (Aqueous solubility; [2]): 58.9 µM (≈ 20.7 µg/mL)
- IC50 (CK2A2; [3]): 1410 nM
- IC50 (IL-6 secretion; Table 8): > 10 µM

SMILES: O=c1[nH]c(-c2ccc(O)c(Br)c2)nc2c(Cl)cc(Cl)cc12 [JKT.805A]
- IC50 (CK2A1; [1]): 2890 nM
- solubility (Aqueous solubility; [2]): 4.2 µM (≈ 1.62 µg/mL)
- IC50 (CK2A2; [3]): 2830 nM
- IC50 (IL-6 secretion; Table 8): > 10 µM

SMILES: COc1c(Br)cc2c(=O)cc(-c3ccc(O)c(Br)c3)oc2c1Br [JKT.745A]
- IC50 (CK2A1; [7]): 20 nM
- solubility (Aqueous solubility; [8]): > 200 µM
- IC50 (CK2A2; [9]): 11 nM
- IC50 (IL-6 secretion; Table 3): 3 µM

SMILES: O=c1cc(-c2ccc(O)c(Cl)c2)oc2c(Br)cccc12 [JKT.749A]
- IC50 (CK2A1; [7]): 11 nM
- solubility (Aqueous solubility; [8]): 36.5 µM (≈ 12.8 µg/mL)
- IC50 (CK2A2; [9]): 18 nM
- IC50 (IL-6 secretion; Table 3): 4.8 µM

SMILES: O=c1[nH]c(-c2ccc(O)c(Br)c2)nc2c(Br)cccc12 [JKT.827A]
- IC50 (CK2A1; [1]): 281 nM
- solubility (Aqueous solubility; [2]): 22.4 µM (≈ 8.87 µg/mL)
- IC50 (CK2A2; [3]): 860 nM
- IC50 (IL-6 secretion; Table 8): > 10 µM

SMILES: O=C(O)c1ccc(/C=C2\Oc3c(Br)cc(Br)cc3C2=O)cc1 [JKT.636A]
- IC50 (CK2A1; [10]): 537 nM
- solubility (Aqueous solubility; Table 10, read-out: Solubility): > 200 µM
- Window of selectivity for CK2A2 over CK2A1 (CK2A2): nine-fold
- IC50 (CK2A2; [11]): 62 nM
- IC50 (IL-6 secretion; Table 10): > 10 µM

SMILES: O=c1[nH]c(-c2ccc(O)c(Cl)c2)nc2c(Cl)cc(Cl)cc12 [JKT.806A]
- IC50 (CK2A1; [1]): > 5000 nM
- solubility (Aqueous solubility; [2]): 17 µM (≈ 5.81 µg/mL)
- IC50 (CK2A2; [3]): > 5000 nM
- IC50 (IL-6 secretion; Table 8): > 10 µM

SMILES: O=c1cc(-c2ccc(O)c(Br)c2)oc2ccc(Cl)cc12 [JKT.778A]
- IC50 (CK2A1; [7]): 115 nM
- solubility (Aqueous solubility; [8]): 15.1 µM (≈ 5.31 µg/mL)
- IC50 (CK2A2; [9]): 78 nM
- IC50 (IL-6 secretion; Table 3): 7.4 µM

SMILES: COc1ccc2c(c1Br)O/C(=C\c1ccc(O)c(Br)c1)C2=O [JKT.815A]
- IC50 (CK2A1; [4]): 47 nM
- solubility (Aqueous solubility; [5]): < 0.01 µM
- IC50 (CK2A2; [6]): 26 nM
- IC50 (IL-6 secretion; Table 11): 4.6 µM

SMILES: COc1c(Br)cc2c(c1Br)O/C(=C\c1ccc(O)cc1Br)C2=O [JKT.760A]
- IC50 (CK2A1; [4]): > 5000 nM
- solubility (Aqueous solubility; [5]): 184 µM (≈ 92.7 µg/mL)
- IC50 (CK2A2; [6]): > 5000 nM
- IC50 (IL-6 secretion; Table 11): 9.4 µM

SMILES: O=c1cc(-c2ccc(O)c(Cl)c2)oc2c(Cl)cc(Cl)cc12 [JKT.725A]
- IC50 (CK2A1; [7]): 15 nM
- solubility (Aqueous solubility; [8]): 39.9 µM (≈ 13.6 µg/mL)
- IC50 (CK2A2; [9]): 12 nM
- IC50 (IL-6 secretion; Table 3): 4.8 µM

SMILES: O=C1/C(=C/c2ccoc2)Oc2c(Br)cc(Br)cc21 [JKT.638A]
- IC50 (CK2A1; [10]): > 5000 nM
- solubility (Aqueous solubility; Table 10, read-out: Solubility): 30.2 µM (≈ 11.2 µg/mL)
- IC50 (CK2A2; [11]): > 5000 nM
- IC50 (IL-6 secretion; Table 10): > 10 µM

SMILES: COc1c(Br)cc2c(c1Br)O/C(=C\c1cc(Cl)c(O)c(Cl)c1)C2=O [JKT.823A]
- IC50 (CK2A1; [4]): > 5000 nM
- solubility (Aqueous solubility; [5]): 167 µM (≈ 82.5 µg/mL)
- IC50 (CK2A2; [6]): 1220 nM
- IC50 (IL-6 secretion; Table 11): 5.5 µM

SMILES: O=c1cc(-c2ccc(O)c(Br)c2)oc2c(Cl)cccc12 [JKT.777A]
- IC50 (CK2A1; [7]): 20 nM
- solubility (Aqueous solubility; [8]): 14 µM (≈ 4.92 µg/mL)
- IC50 (CK2A2; [9]): 21 nM
- IC50 (IL-6 secretion; Table 3): 10.3 µM

SMILES: O=c1cc(-c2ccc(O)c(C(F)(F)F)c2)oc2c(Br)cccc12 [JKT.751A]
- IC50 (CK2A1; [7]): 635 nM
- solubility (Aqueous solubility; [8]): 4 µM (≈ 1.54 µg/mL)
- IC50 (CK2A2; [9]): 637 nM
- IC50 (IL-6 secretion; Table 3): 5 µM

SMILES: COc1c(Br)cc2c(=O)cc(-c3ccc(O)c(C(F)(F)F)c3)oc2c1Br [JKT.750A]
- IC50 (CK2A1; [7]): 580 nM
- solubility (Aqueous solubility; [8]): 124 µM (≈ 61.5 µg/mL)
- IC50 (CK2A2; [9]): 466 nM
- IC50 (IL-6 secretion; Table 3): 2.2 µM

SMILES: N#Cc1ccc(/C=C2\Oc3c(Br)cc(Br)cc3C2=O)cc1 [JKT.632A]
- IC50 (CK2A1; [10]): > 5000 nM
- solubility (Aqueous solubility; Table 10, read-out: Solubility): > 200 µM
- IC50 (CK2A2; [11]): > 5000 nM
- IC50 (IL-6 secretion; Table 10): 10 µM

SMILES: COc1ccc2c(c1Br)O/C(=C\c1ccc(O)c(Cl)c1)C2=O [JKT.817A]
- IC50 (CK2A1; [4]): 59 nM
- solubility (Aqueous solubility; [5]): < 0.01 µM
- IC50 (CK2A2; [6]): 53 nM
- IC50 (IL-6 secretion; Table 11): 6.5 µM

SMILES: O=C1/C(=C/c2ccc(O)cc2)Oc2c(Br)cc(Br)cc21 [JKT.629A]
- IC50 (CK2A1; [10]): > 5000 nM
- solubility (Aqueous solubility; Table 10, read-out: Solubility): 5.6 µM (≈ 2.22 µg/mL)
- IC50 (CK2A2; [11]): > 5000 nM
- IC50 (IL-6 secretion; Table 10): 7.9 µM

SMILES: COc1c(Br)cc2c(c1Br)O/C(=C\c1ccc(O)c(I)c1)C2=O [JKT.813A]
- IC50 (CK2A1; [4]): 135 nM
- solubility (Aqueous solubility; [5]): < 0.01 µM
- IC50 (CK2A2; [6]): 193 nM
- IC50 (IL-6 secretion; Table 11): 1.1 µM

SMILES: O=c1[nH]c(-c2cc(Cl)c(O)c(Cl)c2)nc2c(Br)cc(Br)cc12 [JKT.773B]
- IC50 (CK2A1; [1]): 243 nM
- solubility (Aqueous solubility; [2]): 24.1 µM (≈ 11.2 µg/mL)
- IC50 (CK2A2; [3]): 276 nM
- IC50 (IL-6 secretion; Table 8): > 10 µM

SMILES: COc1ccc2c(=O)cc(-c3ccc(O)c(C(F)(F)F)c3)oc2c1Br [JKT.786A]
- IC50 (CK2A1; [7]): 2480 nM
- solubility (Aqueous solubility; [8]): < 0.01 µM
- IC50 (CK2A2; [9]): 1710 nM
- IC50 (IL-6 secretion; Table 3): > 10 µM

SMILES: O=c1[nH]c(-c2ccc(O)c(C(F)(F)F)c2)nc2c(Br)cc(Br)cc12 [JKT.775A]
- IC50 (CK2A1; [1]): 370 nM
- solubility (Aqueous solubility; [2]): 17.9 µM (≈ 8.31 µg/mL)
- IC50 (CK2A2; [3]): 2480 nM
- IC50 (IL-6 secretion; Table 8): > 10 µM

SMILES: COc1ccc2c(=O)cc(-c3ccc(O)c(Cl)c3)oc2c1Br [JKT.787A]
- IC50 (CK2A1; [7]): 24 nM
- solubility (Aqueous solubility; [8]): < 0.01 µM
- IC50 (CK2A2; [9]): 16 nM
- IC50 (IL-6 secretion; Table 3): 7.7 µM

SMILES: O=C1/C(=C/c2ccc(O)c(Cl)c2)Oc2c(Br)cc(Br)cc21 [JKT.726A]
- IC50 (CK2A1; [4]): 44 nM
- solubility (Aqueous solubility; [5]): 7.8 µM (≈ 3.36 µg/mL)
- IC50 (CK2A2; [6]): 26 nM
- IC50 (IL-6 secretion; Table 11): 3.4 µM

SMILES: O=C1/C(=C/c2ccc(-c3nnn[nH]3)cc2)Oc2c(Br)cc(Br)cc21 [JKT.633A]
- IC50 (CK2A1; [10]): > 5000 nM
- solubility (Aqueous solubility; Table 10, read-out: Solubility): 102 µM (≈ 45.8 µg/mL)
- IC50 (CK2A2; [11]): > 5000 nM
- IC50 (IL-6 secretion; Table 10): > 10 µM

SMILES: O=C1/C(=C/c2ccco2)Oc2c(Br)cc(Br)cc21 [JKT.637A]
- IC50 (CK2A1; [10]): > 5000 nM
- solubility (Aqueous solubility; Table 10, read-out: Solubility): 52.4 µM (≈ 19.4 µg/mL)
- IC50 (CK2A2; [11]): > 5000 nM
- IC50 (IL-6 secretion; Table 10): > 10 µM

SMILES: O=c1cc(-c2ccc(O)c(Br)c2)oc2c(Cl)cc(Cl)cc12 [JKT.715A]
- IC50 (CK2A1; [7]): 18 nM
- solubility (Aqueous solubility; [8]): 120 µM (≈ 46.2 µg/mL)
- IC50 (CK2A2; [9]): 16 nM
- IC50 (IL-6 secretion; Table 3): 4.1 µM

SMILES: COc1ccc2c(c1Br)O/C(=C\c1ccc(O)c(C(F)(F)F)c1)C2=O [JKT.819A]
- IC50 (CK2A1; [4]): 540 nM
- solubility (Aqueous solubility; [5]): 17 µM (≈ 7.06 µg/mL)
- IC50 (CK2A2; [6]): 660 nM
- IC50 (IL-6 secretion; Table 11): 5.9 µM
